Activity calls are given as the source filed them. No cut-off for these calls is given here.
What was measured:
MCF7 [1] = test: Induction of autophagy in human MCF7 cells assessed as upregulation of LC3-II to LC3-I ratio at 20 uM incubated for 4 hrs by Western blotting analysis; type: functional, cell-based
MCF7 [2] = test: Induction of autophagy in human MCF7 cells assessed as p62/GAPDH ratio (reference value: 1.20); type: functional
MCF7 [3] = test: Induction of autophagy in human MCF7 cells assessed as p62/GAPDH ratio (reference value: 0.96); type: functional
HEK293 [4] = test: Inhibition of autophagy in HEK293 cells assessed as increase in LC3-II protein level incubated for 4 hrs by Western blotting analysis; type: functional, cell-based; conditions: Homo sapiens, dose 0.1-2 µM
HEK293 [5] = test: Inhibition of autophagy in HEK293 cells assessed as increase in p62 protein level incubated for 4 hrs by Western blotting analysis; type: functional, cell-based; conditions: Homo sapiens, dose 0.1-2 µM
HEK293 [6] = test: Inhibition of autophagy in HEK293 cells assessed as increase in LC3-I protein level incubated for 4 hrs by Western blotting analysis; type: functional, cell-based; conditions: Homo sapiens, dose 0.1-2 µM
MCF7 [7] = test: Inhibition of autophagy in human MCF7 cells assessed as increase in LC3-II protein level incubated for 4 hrs by Western blotting analysis; type: functional, cell-based; conditions: dose 0.1-2 µM
MCF7 [8] = test: Inhibition of autophagy in human MCF7 cells assessed as increase in p62 protein level incubated for 4 hrs by Western blotting analysis; type: functional, cell-based; conditions: dose 0.1-2 µM
MCF7 [9] = test: Inhibition of autophagy in human MCF7 cells assessed as increase in LC3-I protein level incubated for 4 hrs by Western blotting analysis; type: functional, cell-based; conditions: dose 0.1-2 µM
MCF7 [10] = test: Induction of autophagy in wild type human MCF7 cells assessed as increase in LC3-II level at 20 uM incubated for 4 hrs by Western blotting analysis; type: functional, cell-based
MCF7 [11] = test: Induction of autophagy in wild type human MCF7 cells assessed as decrease in LC3-I level at 20 uM incubated for 4 hrs by Western blotting analysis; type: functional, cell-based
L02 = test: Cytotoxicity against human LO2 cells assessed as reduction in cell viability at 0.3125 to 40 uM incubated for 24 hrs by MTT assay; type: toxicity, cell-based; conditions: l02, 24 h, dose 0.3125-40 µM
MCF7 [12] = test: Induction of autophagy in human MCF7 cells expressing pEGFP-LC3 assessed as increase in LC3 puncta at 20 uM incubated for 4 hrs by fluorescence microscopic analysis; type: functional, cell-based
MCF7 [13] = test: Induction of autophagy in human MCF7 cells assessed as increase in LC3-II/LC3-1 rate at 20 uM incubated for 4 hrs by Western blotting analysis; type: functional, cell-based
HEK293 [14] = test: Induction of autophagy in HEK293 cells assessed as decrease in p62 protein level incubated for 4 hrs by Western blotting analysis; type: functional, cell-based; conditions: Homo sapiens, dose 0.5-10 µM
MCF7 [15] = test: Induction of autophagy in human […] cells assessed as decrease in p62 protein level incubated for 4 hrs by Western blotting analysis; type: functional, cell-based; conditions: dose 0.5-10 µM
HEK293 [16] = test: Induction of autophagy in HEK293 cells assessed as increase in LC3-II protein level incubated for 4 hrs by Western blotting analysis; type: functional, cell-based; conditions: Homo sapiens, dose 0.5-10 µM
MCF7 [17] = test: Induction of autophagy in human […] cells increase in LC3-II protein level incubated for 4 hrs by Western blotting analysis; type: functional, cell-based; conditions: dose 0.5-10 µM
MCF7 [18] = test: Induction of autophagy in wild type human MCF7 cells assessed as increase in LC3-II level at 10 uM incubated for 1 to 4 hrs by Western blotting analysis; type: functional, cell-based; conditions: time 1-4 hrs
MCF7 [19] = test: Induction of autophagy in wild type human MCF7 cells assessed as decrease in p62 level at 10 uM incubated for 1 to 4 hrs by Western blotting analysis; type: functional, cell-based; conditions: time 1-4 hrs
MCF7 [20] = test: Induction of autophagy in wild type human MCF7 cells assessed as increase in LC3-II level at 10 uM incubated for 6 to 8 hrs by Western blotting analysis; type: functional, cell-based; conditions: time 6-8 hrs
BEAS-2B = test: Cytotoxicity against human BEAS-2B cells assessed as reduction in cell viability at 0.3125 to 40 uM incubated for 24 hrs by MTT assay; type: toxicity, cell-based; conditions: dose 0.3125-40 µM
MCF7 [21] = test: Cytotoxicity against human MCF7 cells assessed as reduction in cell viability at 0.3125 to 40 uM incubated for 24 hrs by MTT assay; type: functional, cell-based; conditions: dose 0.3125-40 µM
MCF7 [22] = test: Induction of autophagy in human MCF7 cells assessed as decrease in p62 level at 20 uM incubated for 4 hrs by Western blotting analysis; type: functional, cell-based
MCF7 [23] = test: Induction of autophagic flux in wild type human MCF7 cells assessed as increase in LC3-II protein level at 10 uM incubated for 4 hrs in the presence of bafilomycin A1 by Western blotting analysis; type: functional, cell-based
MCF7 [24] = test: Induction of autophagic flux in wild type human MCF7 cells assessed as increase in LC3-I protein level at 10 uM incubated for 4 hrs in the presence of bafilomycin A1 by Western blotting analysis; type: functional, cell-based
MCF7 [25] = test: Induction of autophagic flux in wild type human MCF7 cells assessed as increase in p62 protein level at 10 uM incubated for 4 hrs in the presence of bafilomycin A1 by Western blotting analysis; type: functional, cell-based
MCF7 [26] = test: Induction of autophagy in pEGFP-LC3-labeled human MCF7 cells assessed as formation of autophagosome by measuring the appearance of clustered granules near the nucleus at 10 uM by laser confocal microscopic imaging analysis; type: functional, cell-based; conditions: time 1-8 hrs
[27] = Cytotoxicity against human […] cells assessed as reduction in cell viability at 0.3125 to 40 uM incubated for 24 hrs by MTT assay; type: toxicity, cell-based; conditions: dose 0.3125-40 µM

COc1c(C)c(O)c(C(=O)C(C)C)c(O)c1Cc1c(O)c(C(=O)C(C)(C)C)c(O)c(C)c1OC
Activity (MCF7 [1]): Active
Ratio (MCF7 [2]): 0.98

CCCCC(=O)c1c(O)c(C)c(OC)c(Cc2c(O)c(C)c(O)c(C(=O)CCCC)c2OC)c1O
Ratio (MCF7 [2]): 1.05

CCCCCc1c(O)c(C)c(OC)c(Cc2c(O)c(CCCCC)c(O)c(C)c2OC)c1O
Ratio (MCF7 [3]): 0.97

CCC(=O)c1c(O)c(Cc2c(O)c(C(=O)CC)c(O)c(C(=O)CC)c2O)c(O)c(C(=O)CC)c1O
inhibition (HEK293 [4]): Dose-dependent-effect
inhibition (HEK293 [5]): Dose-dependent-effect
inhibition (HEK293 [6]): Dose-dependent-effect
inhibition (MCF7 [7]): Dose-dependent-effect
inhibition (MCF7 [8]): Dose-dependent-effect
inhibition (MCF7 [9]): Dose-dependent-effect

COc1c(C)c(O)c(C(C)=O)c(O)c1Cc1c(O)c(C(=O)C(C)C)c(O)c(C)c1OC
Activity (MCF7 [1]): Active
Ratio (MCF7 [2]): 0.84

CCCCC(=O)c1c(O)c(C)c(OC)c(Cc2c(O)c(C(C)=O)c(O)c(C)c2OC)c1O
Activity (MCF7 [1]): Active
Ratio (MCF7 [2]): 0.85

COc1c(Cc2c(O)c(C)c(O)c(C(=O)C(C)C)c2OC)c(O)c(C)c(O)c1C(=O)C(C)C
Ratio (MCF7 [3]): 0.92

COc1c(C)c(O)c(CC(C)C)c(O)c1Cc1c(O)c(CC(C)C)c(O)c(C)c1OC
Ratio (MCF7 [3]): 0.95

CCN(CC)CCCC(C)Nc1ccnc2cc(Cl)ccc12 (stereo unspecified)
Activity (MCF7 [10]): Active
Activity (MCF7 [11]): inactive

COc1c(C)c(O)c(C(=O)C(C)(C)C)c(O)c1Cc1c(O)c(C(=O)C(C)(C)C)c(O)c(C)c1OC
Ratio (MCF7 [3]): 1.18

CCC(=O)c1c(O)c(C)c(OC)c(Cc2c(O)c(C(=O)C(C)C)c(O)c(C)c2OC)c1O
Activity (MCF7 [1]): Active
Ratio (MCF7 [2]): 0.86

CCCCC(=O)c1c(O)c(C)c(OC)c(Cc2c(O)c(C(=O)CCCC)c(O)c(C)c2OC)c1O
Activity (MCF7 [1]): Active
Ratio (MCF7 [3]): 0.86

COc1c(C)c(O)c(C(=O)C(C)C)c(O)c1Cc1c(O)c(C)c(O)c(C(=O)C(C)C)c1OC
Activity (MCF7 [1]): Active
Ratio (MCF7 [2]): 0.7

COc1c(C)c(O)c(C(=O)C(C)C)c(O)c1Cc1c(O)c(C(=O)C(C)C)c(O)c(C)c1OC
Activity (L02): Toxic
Activity (MCF7 [12]): Active; Higher Activity Observed
Activity (MCF7 [10]): Active
Activity (MCF7 [11]): Active
Activity (MCF7 [13]): Active
Activity (MCF7 [1]): Active
Ratio (MCF7 [3]): 0.73
Activity (HEK293 [14]): Dose-dependent-effect
Activity (MCF7 [15]): Dose-dependent-effect
Activity (HEK293 [16]): Dose-dependent-effect
Activity (MCF7 [17]): Dose-dependent-effect
Activity (MCF7 [18]): Active
Activity (MCF7 [19]): Active
Activity (MCF7 [20]): inactive
Activity (BEAS-2B): Toxic
Activity (MCF7 [21]): Active
Activity (MCF7 [22]): Active
Activity (MCF7 [23]): Active
Activity (MCF7 [24]): Active
Activity (MCF7 [25]): Active
Activity (MCF7 [26]): Time-dependent-effect
Activity [27]: Toxic

CCCCC(=O)c1c(O)c(C)c(O)c(Cc2c(O)c(C)c(O)c(C(=O)CCCC)c2OC)c1OC
Activity (MCF7 [1]): Active
Ratio (MCF7 [3]): 0.84

COc1c(C)c(O)c(C(C)=O)c(O)c1Cc1c(O)c(C)c(O)c(C(=O)C(C)C)c1OC
Activity (MCF7 [1]): Active
Ratio (MCF7 [2]): 0.71

Source: ChEMBL document CHEMBL6153039, “Synthesis and structural modification of the natural product Ivesinol to discover novel autophagy activators” (Eur J Med Chem, 2025)
